Experiment [1] concerns prednisolone-resistant leukemia cells. The experiment can be described thus: Overcoming of prednisolone resistance. The conditions noted are these: 72 h. It is filed as cell-based. As to the method: (§1) The cells were incubated in 6-well plates with 1.0·10^5 cells/mL in two milliliters of medium with the respective steroid derivative in different concentrations. The included solvent control (DMSO) served as a control, which was subtracted from all the other measured values, in order not to take into account the spontaneous apoptosis of the cells that takes place independently of the concentration of active ingredient. After 72 h, a modified cell cycle analysis was performed, in order to quantify the proportion of apoptotic cells by flow cytometry. For each concentration of the steroid, the respective mean values f standard deviations, n=3 (*: p<0.05 vs. DMSO, t test) were determined. Using the curve of the dose-effect relationship (steroid concentration−apoptosis induction) formed from these measured values, the steroid concentration at which apoptosis was triggered in 50% of the tested leukemia cells was read.
Prednisolone resistance is said to be overcome if the induction of apoptosis in prednisolone-resistant leukemia cells is as high as it is in normal leukemia cells.

The subject of another experiment is Nalm-6 cells. Nature of the experiment: Half-maximal apoptosis induction (AC50) in Nalm-6 cells. Particulars: Homo sapiens; Nalm-6, 72 h, flow cytometry; read-out: Biological effect: half-maximal apoptosis induction (AC50). It is filed as cell-based. As to the method: Apoptosis Induction in Nalm-6 Cells after Treatment with WIL-071 or Different Steroid Derivatives.
as §1

As for `C=C1[C@@H]2OC[C@@]3(CC[C@H](O)C[C@]13O)[C@H]1CC[C@]3(C)[C@@H]([C@H](C)CCCC(C)C)CC[C@H]3[C@H]21` [TAS-S399, 7β,19-epoxy-6-methylen-cholest-3β,5α-diol], the EC50 in experiment [1] is around 75 µM. Further, in the experiment with Nalm-6 cells, the AC50 came out at 50 µM.

`CC(C)CCC[C@@H](C)[C@H]1CC[C@H]2[C@@H]3[C@H]4OC[C@@]5(CC=CC[C@]5(O)C4=O)[C@H]3CC[C@]12C` [TAS-S392, 7β,19-epoxy-5α-hydroxy-cholest-2-en-6-one]: the EC50 in experiment [1] was around 39 µM. In the experiment on Nalm-6 cells, the AC50 was around 46 µM.

In experiment [1], `CC[C@H](CC[C@@H](C)[C@H]1CC[C@H]2[C@@H]3[C@H]4OC[C@@]5(CC[C@H](O)C[C@]5(O)C4=O)[C@H]3CC[C@]12C)C(C)C` [WIL-DK-09, 3β,5α-dihydroxy-7β,19-epoxy-stigmastan-6-one] displayed an EC50 of around 38 µM. Besides, the AC50 with Nalm-6 cells is around 15 µM.

In experiment [1], `CC(C)CCC[C@@H](C)[C@H]1CC[C@H]2[C@@H]3[C@H]4OC[C@@]5(CC[C@H](OS(C)(=O)=O)C[C@]5(O)C4=O)[C@H]3CC[C@]12C` [TAS-S389, (7β,19-epoxy-5α-hydroxy-6-on-cholestan-3β-yl) ester of methanesulfonic acid] came in with an EC50 of around 30 µM. Besides, the concentration at half-maximal activity (AC50) with Nalm-6 cells was around 20 µM.

With `CC(C)CCC[C@@H](C)[C@H]1CC[C@H]2[C@@H]3[C@H]4OC[C@@]5(CC[C@H](OC(=O)CNC(=O)OC(C)(C)C)C[C@]5(O)C4=O)[C@H]3CC[C@]12C` [WIL360, N-Boc-glycin (7β,19-epoxy-5α-hydroxy-6-on-cholestan-3β-yl) ester], the midpoint of the response in experiment [1], the EC50, lay at 20 µM. For the same compound, the concentration at half-maximal activity (AC50) in the experiment on Nalm-6 cells is above 20 µM.

`COC(=O)O[C@H]1CC[C@@]23CO[C@@H](C(=O)[C@@]2(O)C1)[C@H]1[C@@H]2CC[C@H]([C@H](C)CCCC(C)C)[C@@]2(C)CC[C@@H]13` [WIL357, 7β,19-epoxy-5α-hydroxy-6-on-cholestan-3β-yl-methyl carbonate] came in with a 50% effective concentration (EC50) in experiment [1] above 50 µM. Also, the AC50 with Nalm-6 cells was above 50 µM.

For `CC(C)CCC[C@@H](C)[C@H]1CC[C@H]2[C@@H]3[C@H]4OC[C@@]5(CC[C@@H](O)C[C@]5(O)C4=O)[C@H]3CC[C@]12C` [TAS-S403, 3α,5α-dihydroxy-7β,19-epoxy-cholestan-6-one], the EC50 in experiment [1] was 20 µM. The AC50 in the experiment with Nalm-6 cells was determined as 100 µM.

Compound `CC(=O)O[C@@H]1CC[C@@]23CO[C@@H](C(=O)[C@@]2(O)C1)[C@H]1[C@@H]2CC[C@H]([C@H](C)CCCC(C)C)[C@@]2(C)CC[C@@H]13` [TAS-S405, 3α-acetoxy-5α-hydroxy-7β,19-epoxy-cholestan-6-one] returned an EC50 in experiment [1] of around 20 µM. Besides, the AC50 with Nalm-6 cells was found to be 90 µM.

For `CC(C)CCC[C@@H](C)[C@H]1CC[C@H]2[C@@H]3[C@H]4OC[C@@]5(CCC(=O)C=C5C4=O)[C@H]3CC[C@]12C` [WIL-270, 7β,19-epoxy-cholest-4-en-3,6-dione], the concentration giving a half-maximal response (EC50) in experiment [1] amounted to 18 µM. Moreover, the AC50 with Nalm-6 cells amounted to 20 µM.

`CC(C)CCC[C@@H](C)[C@H]1CC[C@H]2[C@@H]3[C@H]4OC[C@@]5(CC[C@H](O)C[C@]5(O)C4(C)O)[C@H]3CC[C@]12C` (stereo partly drawn) [TAS-S406, 7β,19-epoxy-6α-methylcholestan-3β,5α,6β-triol] gave a concentration for a half-maximal effect (EC50) in experiment [1] of around 17 µM. The concentration at half-maximal activity (AC50) with Nalm-6 cells was found to be 13 µM.

`C=C(CC(=O)O[C@H]1CC[C@@]23CO[C@@H](C(=O)[C@@]2(O)C1)[C@H]1[C@@H]2CC[C@H]([C@H](C)CCCC(C)C)[C@@]2(C)CC[C@@H]13)C(=O)OC` [WIL367, 4-(7β,19-epoxy-5α-hydroxy-6-on-cholestan-3β-yl)-1-methyl ester of itaconic acid] gave an EC50 in experiment [1] of around 12.5 µM. Moreover, the AC50 with Nalm-6 cells is around 8 µM.

In experiment [1], `CC(C)CCC[C@@H](C)[C@H]1CC[C@H]2[C@@H]3[C@H]4OC[C@@]5(CC[C@H](O)C[C@]5(OCc5ccccc5)C4=O)[C@H]3CC[C@]12C` [WIL-242b, 5α-benzyloxy-3β-hydroxy-7β,19-epoxy-cholestan-6-one] yielded an EC50 of 40 µM. In addition, the AC50 in the experiment with Nalm-6 cells was 37 µM.

`CC(C)CCC[C@@H](C)[C@H]1CC[C@H]2[C@@H]3[C@H]4OC[C@@]5(CC[C@H](OC(=O)CO)C[C@]5(O)C4=O)[C@H]3CC[C@]12C` [WIL364, (7β,19-epoxy-5α-hydroxy-6-on-cholestan-3β-yl) ester of glycolic acid] gave an EC50 in experiment [1] of around 17.5 µM. Also, the AC50 in the experiment with Nalm-6 cells was around 18 µM.

Take `CC(C)CCC[C@@H](C)[C@H]1CC[C@H]2[C@@H]3[C@H]4OC[C@@]5(CCC(=O)C[C@]5(O)C4=O)[C@H]3CC[C@]12C` [WIL-241, 5α-hydroxy-7β,19-epoxy-cholestane-3,6-dione]: the AC50 with Nalm-6 cells worked out at 41 µM.

Regarding `CC[C@H](CC[C@@H](C)[C@H]1CC[C@H]2[C@@H]3[C@H]4OC[C@@]5(CC[C@H](OC(C)=O)C[C@]5(O)C4=O)[C@H]3CC[C@]12C)C(C)C` [WIL-DK-08, 3β-acetoxy-5α-hydroxy-7β,19-epoxy-stigmastan-6-one], in experiment [1], the EC50 is around 40 µM. Also, the AC50 with Nalm-6 cells is 50 µM.

`CC(C)CCC[C@@H](C)[C@H]1CC[C@H]2[C@@H]3[C@H]4OC[C@@]5(CCCC[C@]5(O)C4=O)[C@H]3CC[C@]12C` [TAS-S398, 7β,19-epoxy-5α-hydroxy-cholestan-6-one] registered an EC50 in experiment [1] of around 67 µM. Further, the AC50 in the experiment on Nalm-6 cells is around 80 µM.

Source of the values: patent US20240398836A1, “EPOXY STEROIDS” (priority 2021, published 2024).
